Experimental findings from ChEMBL document CHEMBL4339213, “Microwave-assisted synthesis and in vitro stability of N-benzylamide non-steroidal anti-inflammatory drug conjugates for CNS delivery” (Bioorg Med Chem Lett, 2019) are described below.

A short description of data set [1]: Half life in pH 7.4 PBS at 125 uM incubated at 37 degC by HPLC analysis. It is filed as physicochemical.
A short description of data set [2]: Half life in human plasma at 100 uM by HPLC analysis. It is filed as ADME, cell-free.
Data set [3] in a line: Drug metabolism in human plasma assessed as release of the NSAID by LC-MS analysis. Type of data set: ADME, cell-free.
Data set [4] can be described thus: Half life in human plasma. Type of data set: ADME, cell-free.
A short description of data set [5]: Half life in human plasma at 125 uM by HPLC analysis. Type of data set: ADME, cell-free.

As for `CC(C(=O)OCCC(=O)NCc1ccccc1)c1ccc(-c2ccccc2)c(F)c1` (stereo not given), in data set [1], the half-life at 125 µM was more than 48 h. Also, the half-life at 100 µM in data set [2] was 1.83 h. Besides, the Drug metabolism result in data set [3] was “Metabolite_Detected”.
In data set [4], `COc1ccc2c(c1)c(CC(=O)OCCC(=O)NCc1ccccc1)c(C)n2C(=O)c1ccc(Cl)cc1` gave a half-life of more than 3.6 h. The Drug metabolism result in data set [3] is listed as “Metabolite_Detected”.
Turning to `COc1ccc2cc([C@H](C)C(=O)OCCC(=O)NCc3ccccc3)ccc2c1`, the half-life at 125 µM in data set [1] is more than 48 h; in data set [5] it was 4.7 min. Further, the Drug metabolism result in data set [3] was “Metabolite_Detected”.
As to `CC(C)Cc1ccc(C(C)C(=O)OCCC(=O)NCc2ccccc2)cc1` (stereo not given), in data set [1], the half-life at 125 µM is more than 48 h. The Drug metabolism result in data set [3] is reported as “Metabolite_Detected”.

Usually half-life stands for the time in which the quantity being followed falls by half. The low end stands for rapid decline, the high end for slow decline.
